Data published in patent publication US6265439A, “Halogenated phenylacetonitrile alkylaminoalkylphenyl compounds as immunosuppressives” (G.D. Searle & Co., priority 2000, dated 2001).
Where a name gives a salt, the structure may show the parent alone.

What was measured:
[1] = system: conA stimulated spleen cells (T lymphocytes) from female Balb/c mice; assay: Assay B: Suppression of Mitogen-Stimulated Proliferation (Murine) (Culture Conditions II); assay type: cell-based, Murine (Balb/c mice); settings: Mus musculus, T-lymphocyte, 72 h; conA 1 ug/ml, 10^5 cells per well, 3 days, MTT
Description: Assay B: Suppression of Mitogen-Stimulated Proliferation(Murine)(Culture Conditions II.)
It is known that lymphocyte activation can be polyclonally stimulated by plant lectins and other mitogenic substances that induce blast transformation and mitosis. The plant lectin concanavalin A (conA) preferentially induces activation and proliferation of T lymphocytes. Exposure of T cells to conA results in polyclonal T cell activation, and this response can be used to determine the in vitro index of immunomodulatory effects of test compounds on pan-T cell activation. Spleen cells were harvested asceptically from female Balb/c mice, and cells were extruded by compression in phosphate buffered saline (pH 7.0). Cells were pelleted by centrifugation (300×g/5 min) and erythrocytes were lysed by resuspension of the splen cells in a hypotonic solution (5 ml per spleen) containing 0.14M NH4 Cl and 0.017M Tris base, pH 7.2, and incubation for 5 min. An equal volume of freshly prepared medium [lscovels modified Dulbecco's medium containing 2 mM L-glutamine, 5% heat inactivated (56° C./45 min) fetal bovine serum and 40 uM 2-mercaptoethanol] .was added to stop cell lysis. The remaining cells were pelleted, resuspended in medium, filtered through a cotton plug to remove debris, and the leukocytes were then counted. Leukocytes (10^5 cells per 10 ul per well) were incubated at 37° C. in a 95% air/[…] atmosphere in 96 well microtiter plates for 3 days. At the start of culture conA (1 ug/ml, SIGMA Chemical Co., St. Louis, Mo.) alone or in combination with test compound (0.0001-60 uM final) or vehicle control (0.6% DMSO or ethanol). All test compounds were dissolved in 95% ethanol or 100% DMSO, and subsequent dilutions were prepared in media. Inhibition of conA stimulated T cell proliferation was measured using a calorimetric indicator of cell growth and proliferation, MTT [3-(4,5-dimethylthiazol-2-yl)-2 diphenyltetrazolium bromide; 100 ul of a 1 mg/ml solution per well, SIGMA][Mosmann, T., 1988. J. Immunol. Methods 65, 55-63.]Cells were loaded with MTT dye at 37° C. for 4 hours; media supernatants were then aspirated from the cell pellets. MTT loaded cells were solubilized in isopropanol (150 ul per well). Light absorbance was measured at a test wavelength of 570 nm and a reference wavelength of 650 nm using a spectrophotometer. EC50 values for immunosuppressive compounds were estimated by four parameter logistical regression analysis of the optical density data [Delean, A., Munson, P. J. and D. Robard, 1978. Am,. J. Physiol. 235:397.

[2] = system: ConA-stimulated spleen cells (T-cells) from female Balb/c mice; assay: Assay A: Suppression of Mitogen-Stimulated Proliferation (Murine) (Culture Conditions I); assay type: cell-based, Murine (Balb/c mice); settings: Mus musculus, T-cell, 120 h; ConA 1.0 μg/ml, 10^5 cells/well, 5 days, MTT
Description: Assay A: Suppression of Mitogen-Stimulated Proliferation (Murine)(Culture Conditions I)
Lymphocyte activation can be polyclonally stimulated by plant lectins and other mitogens that induce blast transformation and mitosis. Certain mitogens like Concanavalin A (ConA), preferentially activate T-lymphocytes. Exposure to ConA results in polyclonal activation of T-cells and can be used as an in vitro index for general immunomodulation of pan T-cell activity. In this assay spleen cells harvested from female Balb/c mice were incubated at 37° C., in 95% air/5% CO2 atmosphere in 96 well microtiter plates (10^5 cells/well) for 5 days with Iscove's modified Dulbecco's medium [25 mM HEPES […] L-glutamine, 5% fetal bovine serum and 2-mercaptoethanol (40 μM)], concanavalin A (ConA) alone (Sigma, St. Louis, Mo.; 1.0 μg/ml) or ConA in the presence of test compounds (0.001-25 μM). Inhibition of ConA-stimulated proliferation was measured by addition of the calorimetric indicator of growth metabolic activity or viability, MTT (3-(4,5-dimethylthiazol-2-yl)-2 diphenyl tetrazolium bromide; (100 μl/well, 1 mg/ml) Sigma) [Mosmann, T., J. of Immunological Methods, 65, 55-63, 1988]. After four hours, plates were centrifuged (1200 rpm) media supernatants aspirated and dye loaded cells were solubilized in isopropanol (150 μl/well). The absorbance was measured on an ELISA plate reader with a test wavelength of 570 nm and a reference of 630 nm. The IC50 values for active immunosuppressant compounds were calculated by four parameter logistic regression analysis of the results [Delean et al, Am. J. Physiol., 235, 397 (1978)].

[3] = system: human peripheral blood mononuclear cells; assay: Assay C: One-Way Mixed Lymphocyte Reaction (Human); assay type: cell-based; settings: mitomycin-C inactivated Raji stimulator cells, 120 hours, 3H-thymidine incorporation
Description: Assay C: One-Way Mixed Lymphocyte Reaction (Human)
The mixed lymphocyte reaction (MLR) is an assay that measures T-cell activation and mitosis which occurs when lymphocytes from different major and minor histocompatibility complex (MHC) haplotypes are cocultured. This response is considered a "one-way MLR" when stimulator cells are made unresponsive by inhibition of DNA synthesis (treatment with mitomycin-C or gamma-irradiation) prior to coculture with responder cells. This assay can be used as an indicator of the cellular immunomodulation mechanisms involved in transplant rejection. In this assay, human peripheral blood mononuclear cells(PMNC) were used as the responder cell population and were isolated from normal donor blood as follows: Blood samples were collected in LeucoPREP™ tubes (Becton Dickinson, Lincoln Park, N.J.) and the mononuclear cell preparation was obtained by following the manufacturers procedures. Isolated mononuclear cells were co-incubated at 6×10^4 cells/well with a stimulator cell line at 2×10^4 cells/well in RPMI 1640 medium containing 5% fetal bovine serum and 2-mercaptoethanol (40 μM). The stimulator cell line, Raji, which was derived from a human Burkitt lymphoma (American Type Culture Collection, Rockville Md.) was previously inactivated by mitomycin-C treatment (Sigma, St. Louis Mo., 25 μg/ml, 37° for 30 minutes). After repeated washings of mitomycin-C from the stimulator cell line, cocultures were incubated in 96 well microtiter plates at 37° C., in 95% air/5% CO2 atmosphere for 120 hours in the presence or absence of test compounds (0.1-25 μM). Inhibition of proliferation was measured by reduced incorporation of ^3 H-thymidine (0.5 μCi/well, added during the last 24 hours of the assay). The IC50 values for the immunosuppressant compounds were calculated by four parameter logistic regression analysis of the results [Delean et al, Id.]

[4] = literature, Acta. Pharmacologica Sinica, 11(3), 281-285 (1990); cited from earlier work

| IC50 [3] | SMILES | IC50 [1] | IC50 [2] | acute and chronic antiinflammatory effects [4] |
| --- | --- | --- | --- | --- |
| 2300 nM | CN(CCCC(C#N)(c1ccc(F)cc1)C1CCCC1)Cc1ccccc1 (racemic) [Example 4, (±)-α-cyclopentyl-4-fluoro-α-[3-(methyl(phenylmethyl)amino]propyl]benzeneacetonitrile, monohydrochioride] | 4810 nM | 3200 nM | – |
| – | CC(C)C(C#N)(CCCCCN(C)Cc1ccccc1)c1ccc(F)cc1 (racemic) [Example 6, (±)-4-fluoro-α-(1-methylethyl)-α-[5-methyl(phenylmethyl)amino]pentyl]benzeneacetonitrile] | 930 nM | 500 nM | – |
| – | COC(=O)C1=C(C)NC(C)=C(C(=O)OC)C1c1ccccc1[N+](=O)[O-] [nifedipine] | – | – | dose-dependent acute and chronic antiinflammatory effects |
| 2900 nM | CC(C)C(C#N)(CCCN(C)Cc1ccccc1)c1ccccc1F (racemic) [Example 8, (±)-2-fluoro-α-(1-methylethyl)-α-[3-[methyl (phenylmethyl)amino]propyl]benzeneacetonitrile, monohydrochloride] | 3350 nM | 1400 nM | – |
| 2100 nM | CC(C)C(C#N)(CCCCN(C)Cc1ccccc1)c1ccc(F)cc1 (racemic) [Example 5, (±)-4-fluoro-α-(1-methylethyl)-α-[4-(methyl (phenylmethyl)amino]butyl]benzeneacetonitrile, monohydrochloride] | 1760 nM | 900 nM | – |
| 7200 nM | CC(C)C(C#N)(CCCN(C)Cc1ccccc1)c1ccc(F)cc1 (racemic) [Example 2, (±)-4-fluoro-α-(1-methylethyl)-α-[3-[methyl (phenylmethyl)amino]propyl]benzeneacetonitrile, monohydrochloride] | 5190 nM | 2200 nM | – |
| – | CC(C)C(C#N)(CCCN(C)Cc1ccccc1)c1ccc(F)c(F)c1 (racemic) [Example 1, (±)-3,4-difluoro-α-(1-methylethyl)-α-[3-[methyl(phenylmethyl)amino]propyl]benzeneacetonitrile] | 2410 nM | – | – |
| – | CC(C)C(C#N)(CCCN(Cc1ccccc1)Cc1ccccc1)c1ccc(F)cc1 (racemic) [Example 10, (±)-α-[3-[bis(phenylmethyl)amino]propyl]-4-fluoro-α-(1-methylethyl)benzeneacetonitrile, monohydrochloride] | 13500 nM | – | – |
| – | COC(=O)C1=C(C)NC(C)=C(C(=O)OCCN(C)Cc2ccccc2)C1c1cccc([N+](=O)[O-])c1 (stereo not shown) [nicardipine] | – | – | dose-dependent acute and chronic antiinflammatory effects |
| – | CC(C)C(C#N)(CCCN(C)Cc1ccccc1)c1c(F)cccc1F (racemic) [Example 9, (±)-2,6-difluoro-α-(1-methylethyl)-α-[3-[methyl(phenylmethyl)amino]propyl]benzeneacetonitrile, monohydrochloride] | 4150 nM | – | – |
| 4800 nM | CC(C)C(C#N)(CCCN(C)CCc1ccccc1)c1ccc(F)cc1 (racemic) [Example 3, (±)-4-fluoro-α-(1-methylethyl)-α-[3-[methyl(2-phenylethyl)amino]propyl]benzeneacetonitrile, monohydrochloride] | 3220 nM | 1000 nM | – |
